# Reference: US20180258404A1, “METHODS OF GENERATING NEPHRONS FROM HUMAN PLURIPOTENT STEM CELLS” (THE BRIGHAM AND WOMEN'S HOSPITAL, INC., priority 2015, published 2018)
# What was measured:
# [1] = test system: hPSC-derived renal vesicles; test: Kidney development analysis (Notch inhibition) in kidney organoids; assay type: cell-based, human; conditions: DAPT 10 μM from day 14 to 21, 2D and 3D culture
# Description: FIG. 6. Modeling kidney development and injury in kidney organoids. (a) Schematic for kidney development analysis and nephrotoxicity assay. (b) Representative images of immunohistochemistry in structures derived from hESCs treated with DAPT 10 μM from day 14 to 21. n=4. Notch inhibition suppressed proximal tubule formation. Scale bars: 50 μm. […] Scale bars: 50 μm. […] (d) A low magnification image of gentamicin-treated organoids. Scale bar: 100 μm. CDH1: Cadherin-1 (E-cadherin). PODXL: Podocalyxin-like (Podocalyxin). LTL: lotus tetragonolobus lectin. KIM-1: kidney injury molecule-1. (e) Real-time quantitative PCR of KIM-1 in kidney organoids treated with gentamicin at indicated doses. Data is expressed as mean+/−SEM (n=10). […] Scale bars: 50 μm.
# FIG. 12. Kidney development analysis. (a) DAPT was used to suppress Notch signaling from day 14 to 21. (b) CDH1, PODXL and LTL expression on day 21 in cells derived from hESCs in 2D culture. Scale bars: 50 (c) Percentage of LTL+ nephron structures in control and DAPT-treated on day 21. The nephron number was counted as CDH1+ tubules from 10 fields (×20 magnification) of each sample (n=2). CDH1: Cadherin-1 (E-cadherin). PODXL: Podocalyxin-like (Podocalyxin). […]
# [2] = test system: 3D hESC-derived kidney organoids; test: Nephrotoxicity assay in 3D kidney organoids; assay type: cell-based, human
# Description: Organoids were then fixed with 4% paraformaldehyde (Electron Microscopy Sciences, #RT15710) for 20 minutes for both whole-mount and frozen section immunohistochemistry.
# 3D kidney organoids were fixed with 4% paraformaldehyde in PBS for 20 minutes at RT in a 96-well plate, then washed three times in PBS. The organoids were then incubated in blocking buffer (0.3% Triton X-100 and 5% normal donkey serum) for 1 hour at RT, then washed three times in PBS. The organoids were incubated with primary antibodies in antibody dilution buffer (0.3% Triton X-100 and 1% BSA in PBS) overnight at 4° C. The organoids were then washed with PBS three times for 1 hour each, with the third washing performed overnight at 4° C. For immunostaining with biotinylated LTL (Vector Labs, #B-1325), a Streptavidin/Biotin Blocking Kit (Vector Labs, #SP-2002) was used according to the manufacturer's protocol. The organoids were incubated with secondary antibodies in antibody dilution buffer for 1 hour at RT, then washed with PBS three times for 30 minutes each. Nuclei were counterstained with DAPI for more than 30 minutes. […]
# Total RNA was purified from cells using the RNAeasy MiniKit (Qiagen). […] Quantitative RT-PCR was performed using the iQ5 Multicolor Real-Time PCR Detection System (Bio-Rad). […] Values were calculated by the delta delta CT method. […]
# ARPKD-iPS organoids = test: ARPKD organoid cyst formation in 3D culture; assay type: cell-based, human; conditions: forskolin treatment, 96-well plates, 24 in 24 organoids
# Description: FIG. 26. Autosomal recessive polycystic kidney disease (ARPKD), organoid in 3D culture. This was done in 96-well plates. Cyst formation was 100% (24 in 24 organoids) in ARPKD-iPS with forskolin treatment. PKHD1 mutants were generated with CRISPR. The cystic phenotype appear from very early stage (day 22˜), meaning high-scale drug screening can be done, since media change will be much less frequent.
# NPCs = test: Induction of pre-tubular aggregates and renal vesicles from nephron progenitor cells; assay type: cell-based, human
# Description: (§1) hPSCs grown on Geltrex were washed once with PBS (Life Technologies, #10010-049) and dissociated into single cells with Accutase ([…] Technologies, #07920). Cells were then plated at a density of 2-2.4×10^4 (H9) or 1-1.4×10^4 (HDF, 2C) cells/cm^2 onto 24-well tissue culture plates (TPP, #92024) coated with 1% Geltrex in ReproFF2 supplemented with the ROCK inhibitor Y27632 (10 μM) (TOCRIS, #1254) and FGF2 (10 ng/ml). After 72 hours, cells (50% confluent) were briefly washed in PBS and then cultured in basic differentiation medium consisting of Advanced RPMI 1640 (Life Technologies, #12633-020) and 1X L-GlutaMAX (Life Technologies, #35050-061) supplemented with CHIR99021 (8-10 μM) (TOCRIS, #4423) for 4 days to induce late primitive streak cells Noggin (5 ng/ml) was also used for hiPSC differentiation in addition to CHIR (10 μM). To induce posterior intermediate mesoderm, cells were then cultured in Advanced RPMI+1X L-GlutaMAX+activin (10 ng/mL) (R&D, #338-AC-050) for 3 days. For induction of nephron progenitor cells, the media was then changed to Advanced RPMI+1X L-GlutaMAX+FGF9 (10 ng/ml) (R&D, #273-F9-025/CF) for 7 days. CHIR (3 μM) was added to the media from day 9 to 11 of differentiation to induce renal vesicles. On day 14, cells were switched to the basic differentiation medium and cultured for an additional 7 to 14 days (total of 21 to 28 days). The medium was replaced every 2 or 3 days. A variety of growth factors and small molecules were tested for differentiation.
# hPSCs on day 9 of differentiation, which represents metanephric mesenchyme cells, were dissociated with Accutase and resuspended in the basic differentiation medium supplemented with CHIR (3 μM) and FGF9 (10 ng/mL), and placed in 96-well, round bottom, ultra-low attachment plates (Corning, #7007) at 1×10^5 cells per well. The plates were centrifuged at 1500 rpm for 15 seconds, and the cells then cultured at 37° C., 5% CO2 for 2 days. The medium was then changed to the basic differentiation medium supplemented with FGF9 10 ng/mL and cultured for 3 more days. […]
# NPCs in 3D culture = test: Growth factor and small molecule screening in 3D culture (LTL+ tubules); assay type: cell-based, human; conditions: added in 3D culture from day 10
# Description: FIG. 10. Spontaneous differentiation of SIX2+ cells into nephrons and growth factor screening in 3D culture. (a) Staining with PAX8 and LHX1 in hESCs on day 10 of the differentiation. hESCs were differentiated with CHIR 8 µM for 4 days, activn 10 ng/ml for 3 days, and FGF9 10 ng/ml for 3 days. […] Scale bar: 50 μm. (b) Brighfield imaging for hESCs on day 10 and 21 of the differentiation. FGF9 was withdrawn on day 10, and cells were cultured in the basic medium by day 21. Scale bars: 50 μm. (c) Brightfield and immunocytochemistry for LTL and NPHS1 in hESCs on day 28 of the differentiation. Scale bar: 50 μm. (d) The protocol for growth factor screening. Cells were replated to 3D culture on day 10, and the listed growth factors and small molecules were tested. (e) The number of LTL+ tubules in the organoids. […] (f) Brightfield imaging of 3D co-culture with an ureteric bud cell sphere. Scale bar: 100 μm. (g) Whole-mountstaining for LTL in the organoids on day 16. Scale bar: 100 μm. (h) Immunohistochemistry of the organoids on day 16. Scale bars: 50 μm. LTL: lotus tetragonolobus lectin. NPHS1: Nephrin.
# To test whether the formation of epithelial structures could be facilitated by 3D culture conditions, on day 10, at the time of FGF9 withdrawal, the Inventors replated NPCs in ultra-low-attachment, round-bottom 96-well plates and cultured them for 1 week. NPCs formed 3D spherical aggregates, one per 96-well, in suspension culture.
# [3] = test system: human embryonic stem cells (hESCs; H9); test: Induction of late primitive streak from hESCs with CHIR; assay type: cell-based; conditions: CHIR 8 μM over 4 days
# Description: as §1, with “The medium was replaced every 2 or 3 days. A variety of growth factors and small molecules were tested for differentiation.” left out
# Description for podocytes: Modeling glomerular diseases. The Inventors used puromycin and adriamycin which is known to induce FSGS (focal-segmental glomerulosclerosis).
compound,measurement,setting,value
C[C@H](NC(=O)Cc1cc(F)cc(F)c1)C(=O)N[C@H](C(=O)OC(C)(C)C)c1ccccc1 [DAPT],proximal tubule formation,[1],marked suppression of proximal tubule formation
COc1cccc2c1C(=O)c1c(O)c3c(c(O)c1C2=O)C[C@@](O)(C(=O)CO)C[C@@H]3O[C@H]1C[C@H](N)[C@H](O)[C@H](C)O1 [adriamycin],structures of podocytes,podocytes,the structures of podocytes were disrupted
gentamicin,KIM-1 expression by immunostaining (whole mount and frozen sections),[2]; gentamicin 5 mg/mL for 48 hours after day 21,clear KIM-1 expression at the luminal surface of LTL+tubules but not in E-cadherin+ tubules
same,KIM-1 by real-time PCR,"[2]; gentamicin 5×10^−4, 5×10^−2, or 5 mg/mL for 48 hours",KIM-1 upregulation by gentamicin in a dose-dependent manner
COc1ccc(C[C@H](N)C(=O)N[C@H]2[C@@H](O)[C@H](n3cnc4c(N(C)C)ncnc43)O[C@@H]2CO)cc1 [puromycin],structures of podocytes,podocytes,the structures of podocytes were disrupted
C=C[C@@]1(C)CC(=O)[C@]2(O)[C@@]3(C)[C@@H](O)CCC(C)(C)[C@@H]3[C@H](O)[C@H](OC(C)=O)[C@@]2(C)O1 [forskolin],cyst formation,ARPKD-iPS organoids,100%
"Cc1c[nH]c(-c2cnc(NCCNc3ccc(C#N)cn3)nc2-c2ccc(Cl)cc2Cl)n1 [CHIR, CHIR99021]",size of the organoids,"NPCs; 3D culture from day 9, studied on day 14, versus basic medium (ARPMI)",increased the size of the organoids
same,number of cells that downregulated SIX2 and co-expressed PAX8 and LHX1,"NPCs; CHIR 3 μM for 2 days from day 9 with FGF9 days 7-14, 2D culture",markedly increased
same,PAX8+LHX1+ differentiated cells by flow cytometry,"NPCs; CHIR 3 μM for 2 days from day 9 with FGF9 days 7-14, 2D culture, day 14",~75.9%
same,number of LTL+ tubules in the organoids,NPCs in 3D culture,did not significantly increase the number of LTL+ tubules
same,induction of T+TBX6+ primitive streak cells,[3],robustly induced and maintained a population of T+TBX6+ primitive streak cells
